Several values for one entry are separate records, joined by “and”; a condition that tells them apart may be missing. Equal entries are not always repeated.
System: adults with biopsy-confirmed NASH
Test: MAESTRO-NASH: lipids, lipoproteins and lipid particles
Type: in vivo, human
Settings: 80 mg; for ApoB, Least Squares Mean % CFB / ApoB, Least Squares Mean % CFB Difference from PBO / LDL-C, Least Squares Mean % CFB / LDL-C, Least Squares Mean % CFB Difference from PBO: baseline LDL-C >100 mg/dL; for Lp(a), LS mean % CFB / Lp(a), LS mean % CFB difference from PBO: baseline Lp(a) >10 nmol/L; for Triglycerides, LS mean % CFB / Triglycerides, LS mean % CFB difference from PBO: baseline triglycerides >150 mg/dL
Method: Within the study, we provided analyses based on an analysis of covariance (ANCOVA) model after having performed single imputation for LDL-C as described in the statistical analysis plan (SAP). The ANCOVA model estimated least-squares means using treatment and baseline LDL-C as covariate.
To this end, the Week 24 LDL-C assessment and assessments at any visit in which LDL-C is measured (Weeks 4, 12, 16, 20, 24, 28, 32, 36, 40, 44, 48, and 52) that has been impacted by kit shortage at the prior visit (unavailability of […] (IP) during the 4 weeks preceding the visit due to the COVID-19 pandemic as indicated on the electronic case report form (eCRF)), were considered missing and were imputed from an unaffected assessment at surrounding visits or using data from subjects unaffected by this intercurrent event as described in Section 11.2 of the SAP. In summary, single imputation utilizing adjacent and valid […] measurements were imputed.
For missing lipid data that are still missing after the single imputation approach described, those missing lipid data were imputed using the non-missing lipid values (including the singly imputed data) based on missing at random (MAR)-based (MI). When applying the MAR-based […], data were imputed separately by randomized treatment group and baseline stratification factors.

CC(C)c1cc(Oc2c(Cl)cc(-n3nc(C#N)c(=O)[nH]c3=O)cc2Cl)n[nH]c1=O [Resmetirom, 2-(3,5-dichloro-4-((5-isopropyl-6-oxo-1,6-dihydropyridazin-3-yl)oxy)phenyl)-3,5-dioxo-2,3,4,5-tetrahydro-1,2,4-triazine-6-carbonitrile]
Apolipoprotein B level, difference from placebo (wk 24): −17.2 percentage points | Apolipoprotein B level, least-squares mean percent change from baseline (wk 24): −16.8 ± 1.3% | LDL cholesterol level, difference from placebo (wk 24): −13.7 percentage points | LDL cholesterol level, least-squares mean percent change from baseline (wk 24): −13.6% and −13.6 ± 1.7% | Lipoprotein(a) level, difference from placebo (wk 24): −29.5 percentage points | Triglyceride level, difference from placebo (wk 24): −20.1 percentage points | Lipoprotein(a) level, least-squares mean percent change from baseline (wk 24, baseline lipoprotein(a) >10 nmol per liter): −30.4 ± 3.8% | Triglyceride level, least-squares mean percent change from baseline (wk 24, baseline triglyceride >150 mg per deciliter): −22.7 ± 4.0% | ApoB, LS mean % CFB (Week 24): −16.8% | ApoB, LS mean % CFB difference from PBO (Week 24): −17.2% | ApoCIII, Least Squares Mean % CFB (Week 24): −10.6% | ApoCIII, Least Squares Mean % CFB Difference from PBO (Week 24): −18.7% | HDL-C, Least Squares Mean % CFB (Week 24): 2.7% | HDL-C, Least Squares Mean % CFB Difference from PBO (Week 24): 0.98% | LDL-C, LS mean % CFB (Week 24): −13.6% | LDL-C, LS mean % CFB difference from PBO (Week 24): −13.7% | Non-HDL-C, Least Squares Mean % CFB (Week 24): −15.2% | Non-HDL-C, Least Squares Mean % CFB Difference from PBO (Week 24): −15.4% | ApoB, Least Squares Mean % CFB (Week 24): −21.9% | ApoB, Least Squares Mean % CFB Difference from PBO (Week 24): −18.1% | LDL-C, Least Squares Mean % CFB (Week 24): −21.3% | LDL-C, Least Squares Mean % CFB Difference from PBO (Week 24): −15.4% | ApoCIII, Least Squares Mean % CFB (Week 52): −10.0% | ApoCIII, Least Squares Mean % CFB Difference from PBO (Week 52): −19.8% | HDL particle size, Least Squares Mean % CFB (Week 52): 0.90% | HDL particle size, Least Squares Mean % CFB Difference from PBO (Week 52): 0.60% | HDL particles, Least Squares Mean % CFB (Week 52): 5.2% | HDL particles, Least Squares Mean % CFB Difference from PBO (Week 52): 3.6% | HDL-C, Least Squares Mean % CFB (Week 52): 4.7% | HDL-C, Least Squares Mean % CFB Difference from PBO (Week 52): 2.1% | LDL particle size, Least Squares Mean % CFB (Week 52): −0.32% | LDL particle size, Least Squares Mean % CFB Difference from PBO (Week 52): −0.36% | LDL particles, Least Squares Mean % CFB (Week 52): −16.8% | LDL particles, Least Squares Mean % CFB Difference from PBO (Week 52): −16.1% | Large HDL particles, Least Squares Mean % CFB (Week 52): 12.3% | Large HDL particles, Least Squares Mean % CFB Difference from PBO (Week 52): 0.06% | Large LDL particles, Least Squares Mean % CFB (Week 52): 47.8% | Large LDL particles, Least Squares Mean % CFB Difference from PBO (Week 52): −38.6% | Large VLDL and chylomicron particles, Least Squares Mean % CFB (Week 52): −5.7% | Large VLDL and chylomicron particles, Least Squares Mean % CFB Difference from PBO (Week 52): −16.8% | Medium HDL particles, Least Squares Mean % CFB (Week 52): 88.2% | Medium HDL particles, Least Squares Mean % CFB Difference from PBO (Week 52): 23.1% | Medium VLDL particles, Least Squares Mean % CFB (Week 52): −18.7% | Medium VLDL particles, Least Squares Mean % CFB Difference from PBO (Week 52): −134.5% | Non-HDL-C, Least Squares Mean % CFB (Week 52): −15.7% | Non-HDL-C, Least Squares Mean % CFB Difference from PBO (Week 52): −15.3% | Small LDL particles, Least Squares Mean % CFB (Week 52): −3.3% | Small LDL particles, Least Squares Mean % CFB Difference from PBO (Week 52): −25.0% | Small VLDL particles, Least Squares Mean % CFB (Week 52): 62.9% | Small VLDL particles, Least Squares Mean % CFB Difference from PBO (Week 52): -21.3% | VLDL and chylomicron particles, Least Squares Mean % CFB (Week 52): −11.2% | VLDL and chylomicron particles, Least Squares Mean % CFB Difference from PBO (Week 52): −19.4% | VLDL and chylomicron triglycerides, Least Squares Mean % CFB (Week 52): −14.7% | VLDL and chylomicron triglycerides, Least Squares Mean % CFB Difference from PBO (Week 52): −19.6% | VLDL particle size, Least Squares Mean % CFB (Week 52): 1.9% | VLDL particle size, Least Squares Mean % CFB Difference from PBO (Week 52): −0.05% | ApoB, Least Squares Mean % CFB (Week 52): −25.0% | ApoB, Least Squares Mean % CFB Difference from PBO (Week 52): −18.5% | LDL-C, Least Squares Mean % CFB (Week 52): −25.3% | LDL-C, Least Squares Mean % CFB Difference from PBO (Week 52): −15.7% | Lp(a), LS mean % CFB (week 24): 30.4% | Lp(a), LS mean % CFB difference from PBO (week 24): -29.5% | Triglycerides, LS mean % CFB (week 24): -22.7% | Triglycerides, LS mean % CFB difference from PBO (week 24): −20.1% | ApoB, LS mean % CFB (week 52): -16.2% | ApoB, LS mean % CFB difference from PBO (week 52): −16.8% | LDL-C, LS mean % CFB (week 52): -13.7% | LDL-C, LS mean % CFB difference from PBO (week 52): −13.3% | Lp(a), LS mean % CFB (week 52): −34.0% | Lp(a), LS mean % CFB difference from PBO (week 52): −29.5% | Triglycerides, LS mean % CFB (week 52): −22.5% | Triglycerides, LS mean % CFB difference from PBO (week 52): −19.0%

Source: patent US12377104B1, “Methods for treating a fatty liver disease” (Madrigal Pharmaceuticals, Inc., priority 2024, dated 2025)
